According to patent publication US7691883B2, “Cinnamoyl compound and use of the same” (Sumitomo Chemical Company, Limited, priority 2003, dated 2010):

Key:
[1] = system: mRNA of Type I collagen gene in renal glomerulus; assay: Improvement of chronic renal failure: mRNA of Type I collagen gene in renal glomerulus of anti-Thy-1 antibody rats; type: in vivo, rat; design: key to mRNA of collagen gene: Type I collagen amount / GAPDH amount; settings: for ability to improve chronic renal failure: anti-Thy-1 antibody rats, 15 mg/kg/day orally for 7 days; for mRNA of collagen gene: male Wistar rats given anti-Thy-1 antibody (IgG) i.v., compound orally 15 mg/kg/day for 7 days, Type I collagen amount/GAPDH amount, renal cortex, control group 5.6, normal group 1.7
Protocol: IgG was purified from an ascites-lyophilized powder (CEDARLANE, lot No. 05122) containing an anti-rat CD90 (Thy1.1) monoclonal antibody using MAbTrap kit (Amersham Biosciences, catalogue No. 17-1128-01).
6 ml of a binding buffer was added to 3 ml of ascites to sufficiently recover it, and this was passed through a 0.22 μm filter. The resulting solution was applied to a pre-bufferized column, and the column was then washed with 10 ml of a binding buffer. Thereafter, the column was eluted with 5 ml of an elution buffer. From washing, each 1 ml was fractionated, and the protein concentration of each fraction was measured using bovine serum albumin as a standard. A single peak was confirmed from an elution pattern, and an IgG fraction was dialyzed against a physiological saline overnight at 4° C. The protein concentration of the resulting anti-Thy-1 antibody (IgG) was calculated.
The present compounds represented by the compound numbers (1a), (4a), (9a), (14a), (21a), (33a), (19b) or (21d) (hereinafter, referred to as the present compound (1a), (4a), (9a), (14a), (21a), (33a), (19b) or the present compound (21d), respectively) and a corn oil which is a medium were weighed. These were mixed using a mortar and a pestle to prepare a […]. Using four 7-week old male Wistar rats [Nippon Charles River] per group, 60 μg/ml of the anti-Thy-1 antibody (IgG) or a physiological saline was intravenously injected via a tail vein at 5 ml/kg. Immediately after administration of the anti-Thy-1 antibody (IgG) or a physiological saline, the present compound or a corn oil was repeatedly orally administered for 7 days at 5 ml/kg. A dose of the present compound was 15 mg/kg/day.
On the next day of final administration, a rat reared as described in the above (2) was slaughtered by collection of whole blood, and kidneys were isolated. A whole RNA was separated from the cortex of the isolated kidney using RNeasy Mini Kit (QIAGEN, catalogue No. 74106). To 5 μl (50 ng) of the separated whole RNA were added 1 μl of 20 μM oligo dT and 4 μl of RNase-free distilled water. After the mixture was incubated at 65° C. for 5 minutes, it was immediately ice-cooled. To 10 μl of the solution were added 4 μl of 5× buffer, 2.4 μl of MgCl2, 1 μl of 10 mM dNTP, 1 μl of RNasin, 1 μl of Improm II and 0.6 μl of RNase-free distilled water (all available from Promega), and a reverse transcription reaction was performed under the condition of at 25° C. for 5 minutes, at 42° C. for 1 hour, and at 70° C. for 15 minutes.
Into 5 μl of the reverse transcription reaction solution were mixed each 2 μl of each 1.25 pmol/μl of primers represented by SEQ ID NOS: 3 and 4, 1.25 μl of a probe (FAM-ctcgccttca tgcgcctgct agc-TAMRA) for detecting DNA of a Type I collagen gene represented by SEQ ID No:5, each 0.25 μl of Rodent GAPDH primers, 0.25 μl of a Rodent GAPDH probe, 12.5 μl of TaqMan Universal PCR Master Mix (all available from Applied Biosystem) and 1.5 μl of sterilized water in a well of Optical 96-Well Reaction Plate (Applied Biosystem, catalogue No. N801-0560). As a standard, in place of 5 μl of the reverse transcription reaction solution, each 5 μl of 500, 250, 125, 62.5, 31.25, 15.625 ng/μl rat renal cortex cDNA which had been prepared in advance was used. Thereafter, using Gene Amp 7900 (Applied Biosystem), PCR was performed under the condition of at 50° C. for 5 minutes, and 40 cycles in which one cycle is at 95° C. for 15 seconds and at 60° C. for 1 minute. For quantization, a standard straight line was made, the Type I collagen and GAPDH amounts of each sample were calculated, and the transcription amount was calculated according to the following equation: Type I collagen transcription amount=Type I collagen amount/GAPDH amount
For statistical treatment of the resulting result, F-test of a variance ratio was performed between two groups of the anti-Thy-1 antibody and corn oil-administered groups and other each group. […]

[2] = Ability of a test compound to regulate transcription of a Type I collagen gene using the expression level of a reporter gene (COL-Luc luciferase) as an index; type: cell-based; settings: final concentration 1 μM; normal human fetal skin fibroblast transfected with COL-Luc; TGF-β, 40 hours; read-out: inhibition percentage (inhibitory effect on the ability of TGF-β to promote transcription of a Type I collagen gene)
Protocol: 1×10^8 cells of a normal human fetal skin fibroblast (Clontech, catalogue No. CC-2509) were cultured at 37° C. overnight under 5% CO2 atmosphere. After the cultured cells were washed with a sodium phosphate buffer (hereinafter, referred to as PBS) twice, 3 ml of PBS was added thereto and the cells were scraped away the wall of a vessel using a cell scraper (Nalgen, catalogue No. 179693). The scraped cells were collected by centrifugation (1,500 rpm, 4° C., 15 min), and these were suspended in 20 ml of PBS and centrifuged again. To the resulting precipitates were added 11 ml of Solution 2 and 4.8 μl of pronase of DNA Extraction Kit (Stratagene, catalogue No. 200600). After shaken at 60° C. for 1 hour, the resulting mixture was allowed to stand in ice for 10 minutes. Then, 4 ml of Solution 3 of the kit was added to the mixture. After mixed, the mixture was allowed to stand in ice for 5 minutes and then centrifuged (3,000 rpm, 4° C., 15 min) to recover a supernatant. To the recovered supernatant was added 2 μl of RNase per 1 ml of the supernatant and the mixture was allowed to stand at 37° C. for 15 minutes. To the mixture was added 2-fold volume of ethanol. After mixed, a white thread-like substance (genomic DNA) appeared and the substance was recovered. The recovered genomic DNA washed with 70% ethanol and then air-dried. The air-dried genomic DNA was dissolved in 500 μl of 10 mM Tris-HCl, 1 mM EDTA (pH 8.0) (hereinafter, referred to as TE).
The resulting genomic DNA solution (the amount equivalent to 1 μg of genomic DNA), each 1 μl (10 pmol/μl) of an oligonucleotide consisting of the nucleotide sequence represented by SEQ ID No:1 and an oligonucleotide consisting of the nucleotide sequence represented by SEQ ID No:2, 29 μL of distilled water, 5 μl of the buffer attached to TaKaRa LA Taq (TAKARA SHUZO, catalogue No. RR002A), 5 μL of a Mg^2+ solution, 5 μL of a dNTP mixture and 0.5 μl of TaKaRa LA Taq (TAKARA SHUZO, catalogue No. RR002A) were mixed. After the resulting mixed solution was incubated at 94° C. for 5 minutes, the mixed solution was subjected to 30 cycles, in which one cycle consists of incubation at 94° C. for 1 minute, at 60° C. for 1 minute and then at 72° C. for 1 minute. The mixed solution was electrophoresed on a 2% agarose gel to recover about 0.5 kb of a DNA. The recovered DNA was treated with phenol/chloroform and then precipitated with ethanol to recover the DNA. The resulting DNA was dissolved in ultrapure water. To this solution were added 2.5 μl of NheI and 2.5 μl of HindIII, and then incubated at 37° C. for 3 hours. Then, the solution was electrophoresed on a 2% agarose gel to recover about 3.5 kb of a DNA. The recovered DNA was precipitated with ethanol to recover again the DNA (hereinafter, referred to as the collagen promoter DNA).
On the other hand, the vector pGL3 (Promega, catalogue No. E1751) having the nucleotide sequence encoding firefly luciferase was digested with NheI and HindIII, and then subjected to agarose gel electrophoresis as described above to recover about 5 kb of a DNA. The recovered DNA was precipitated with ethanol to recover the DNA again. To the recovered DNA were added 44 μl of distilled water, 5 μl of Buffer attached to Alkaline Phosphatase (TAKARA SHUZO, catalogue No. 2120A) and 1 μl of Alkaline Phosphatase (TAKARA SHUZO, catalogue No. 2120A). The mixed solution was incubated at 65° C. for 30 minutes. Then, the mixed solution was treated with phenol/chloroform twice, and precipitated with ethanol to recover the DNA (hereinafter referred to as the Luc vector DNA). Then, after about 20 ng of the collagen promoter DNA and about 20 ng of the Luc vector DNA were mixed, the same amount of a DNA Ligation kit Ver2 enzyme solution was added and this was incubated overnight at 16° C. To the mixed solution was added Escherichia coli 5Hdα (TOYOBO, catalogue No. DNA-903), this was allowed to stand in ice for 30 minutes, and then incubated at 42° C. for 45 seconds. […]

SMILES	ability to improve chronic renal failure [1]	mRNA of collagen gene [1]	inhibition at 1 µM [2] [%]
C=CCOc1cccc(C=CC(=O)c2c(O)cc(C)oc2=O)c1 [(4a), 4-hydroxy-3-[3-(3-allyloxyphenyl)-1-oxo-2-propenyl]-6-methyl-2H-pyran-2-one]	have the ability to improve chronic renal failure	3.2	≥ 70
COC(=O)CNC(=O)c1cccc(C=CC(=O)c2c(O)cc(C)oc2=O)c1 [(33a), 4-hydroxy-3-[3-[3-[[(methoxycarbonylmethyl)amino]carbonyl]phenyl]-1-oxo-2-propenyl]-6-methyl-2H-pyran-2-one]	have the ability to improve chronic renal failure	3.3	≥ 70
C#CCOc1ccc(C=CC(=O)c2c(O)cc(C)oc2=O)cc1 [(9a), 4-hydroxy-3-[3-(4-propargyloxyphenyl)-1-oxo-2-propenyl]-6-methyl-2H-pyran-2-one]	have the ability to improve chronic renal failure	3.4	–
Cc1cc(O)c(C(=O)C=Cc2cccc(OCC#N)c2)c(=O)o1 [(14a), 4-hydroxy-3-[3-[3-(cyanomethoxy)phenyl]-1-oxo-2-propenyl]-6-methyl-2H-pyran-2-one]	have the ability to improve chronic renal failure	2.2	≥ 70
COCC(=O)Nc1cccc(C=CC(=O)c2c(O)cc(C)oc2=O)c1 [(21a), 4-hydroxy-3-[3-[3-(methoxyacetylamino)phenyl]-1-oxo-2-propenyl]-6-methyl-2H-pyran-2-one]	have the ability to improve chronic renal failure	1.7	≥ 70
COC(=O)CNC(=O)c1cccc(C=CC(=O)c2c(N3CCOCC3)cc(C)oc2=O)c1 [(19b), 4-morpholino-3-[3-[3-[[(methoxycarbonylmethyl)amino]carbonyl]phenyl]-1-oxo-2-propenyl]-6-methyl-2H-pyran-2-one]	have the ability to improve chronic renal failure	2.9	≥ 70
COCC(=O)Nc1cccc(C=CC(=O)c2c(O)c3ccccc3oc2=O)c1 [(21d), 4-hydroxy-3-[3-[3-(methoxyacetylamino)phenyl]-1-oxo-2-propenyl]-2H-1-benzopyran-2-one]	have the ability to improve chronic renal failure	2.2	≥ 70
Cc1cc(O)c(C(=O)C=Cc2cccc(C=CC#N)c2)c(=O)o1 [(1a), 4-hydroxy-3-[3-[3-(2-cyanoethenyl)phenyl]-1-oxo-2-propenyl]-6-methyl-2H-pyran-2-one]	have the ability to improve chronic renal failure	1.9	≥ 70
